Structures can show the parent of a compound that is named as a salt. Where two headings read alike, the source gives them in different places. Numbered stars: 1 amine (or outer) side, 2 acyl side, 3 side chain; on linkers, the order of the positions; unused ones are H or OH. Bridge positions count the residues as written; N and C are the ends. Square brackets hold non-standard residues; d marks the D form. Peptide text beside a SMILES is read from it. I, II: the chains in the order shown. Actinocin(9to1) = Cc1c2oc3c(C)ccc(C(=O)[*:1])c3nc-2c(C(=O)[*:2])c(N)c1=O; NMeV = CN[C@H](C(=O)O)C(C)C; Sar = CNCC(=O)O

For orientation: LD50 means the dose expected to kill half of the subjects tested. A lower LD50 goes with greater toxicity.

In data set [1] the test system is DNA, RNA and protein biosynthesis. Briefly: Effect on DNA, RNA and protein biosynthesis (substrate incorporation). The class given is cell-based. The text has this:
(§1) Thus, by way of exemplification, the IC^50 values (inhibitory concentration which lowered the initial rate of ^14 C incorporation to 50% of control) are shown in Table VI, below (Yoshida's Tumor, (U-^14 C) amino acid mixture)
The foregoing data clearly indicate that the compounds of the invention are potent inhibitors of DNA, RNA and protein biosynthesis. This is of significance because the suppression of tumor cells in a host is attained by inhibition of the biosynthesis of DNA, RNA and proteins.

The subject of data set [2] is Ehrlich's ascitic carcinoma. Briefly: Incorporation of 14C-adenine and 14C-valine into cellular fraction of Ehrlich's ascitic carcinoma in vitro. The class given is cell-based, mouse. To be noted: for Radioactivity incorporation, adenine: control 1060 cpm; for Radioactivity incorporation, valine: control 2455 cpm; for activity at 75 µM / activity at 150 µM / activity at 300 µM / activity at 600 µM / IC50 / activity at 37.5 µM: Mus musculus, Ehrlich; for IC50: in vitro. An excerpt:
In Table 4, the effect of Tiloron (NSC 143969; 2,7-bis-[2-(diethylamino)ethoxy]fluorene-9-one) and 5-(2-dimethylaminoethoxy)-7-oxo-7H-benzo(c) fluorene hydrochloride are compared on incorporation of ^14 C-adenine and ^14 C-valine with the cellular fraction of Ehrlich's ascitic carcinoma (insoluble in trichloacetic acid). The tests in vitro reveal that the composition of the invention was more than 10 times as effective as Tiloron. The inhibition of incorporation of adenine and valine into the used system of tumor cells is considered as an indication of an anti-tumorous, cytostatic action. This biological activity of the described compound is considerably greater than that of its congener Tiloron. (See also Table 4.)
Effects of Tiloron and substance 13468 on incorporation of ^14
C-adenine and ^14 C-valine
into cellular fraction of Ehrlichs ascitic carcinoma, insoluble in
in vitro. Radioactivity incorporation expressed in cpm.
IC50 = concentration inhibiting incorporation by 50 percent.

Data set [3] deals with Yoshida's Tumor. Briefly: Inhibition of incorporation of labelled substrates in Yoshida's tumor. Type of data set: cell-based. Particulars: Rattus norvegicus, (U-14C) amino acid mixture, Table VI, read-out: IC50 (concentration lowering initial rate of 14C incorporation to 50% of control).
Excerpt: Tumor growth may be observed clinically or in experiments in vivo, that is, with experimental animals, or in vitro, for example, in tissue cultures prepared from tumors. Assessment of tumor growth may be effected by measuring the weight of the tumor mass or, more effectively, by measuring the radioactivity after incorporation therein of certain substances of natural origin such as amino acids, adenine, thymidine and the like labelled with radioactive atoms such as ^14 C, ^3 H, etc.
as §1
The ^IC 50 values of compound 13468 are also shown in Table VII with varying substrates.

Data set [4] relates to La leukaemia. Briefly: Effect on course of transplanted La leukaemia in mice. Type of data set: in vivo, mouse (C57 Bl). Particulars: s.c. 1×300 mg/kg, day 3; significant (&). The text has this: (§2) The therapeutic effect of the described compounds on transplanted tumors in experimental animals is shown in Tables 1-3, on the following five pages.
(§3) &=statistically significant differences versus control at P=0.05
La: La leukaemia in mice C57 Bl

Data set [5] concerns HK: solid tumors, originally spontaneous mammary-gland adenocarcinoma. Briefly: Effect on course of transplanted HK solid mammary-gland adenocarcinoma in mice. The class given is in vivo, mouse (H). Particulars: s.c. 8×25 mg/kg, days 5-10,12,13.
Excerpt: as §2, §3
HK: Solid tumors, originally spontaneous mammary-gland adenocarcinoma in H mice

The subject of data set [6] is Yoshida's ascitic tumor. Briefly: Effect on course of transplanted Yoshida's ascitic tumor in rats. Type of data set: in vivo, rat (Wistar). Particulars: days 1-5, Tables I and II, significant (&).
Excerpt: as §2, §3
Y: Yoshida's ascitic tumor in Wistar rats

For data set [7], the system named is L1210 leukaemia. Kind of data set: Effect on course of transplanted L1210 leukaemia in mice. The class given is in vivo, mouse (hybrid DBA/H). To be noted: s.c. 1×250 mg/kg, day 1; significant (&).
Excerpt: as §2, §3
L1210 : Leukaemia growing in the form of ascitic tumors in hybrid DBA/H mice

A short description of data set [8]: Acute toxicity in mice. Particulars: mouse, in vivo, sc; subcutaneously; mice S, males 22-24 gram. The text has this: The anti-tumor compounds described herein have also been studied from the standpoint of toxicity and the conclusion drawn that they are not toxic to mammalian hosts. The toxicological data set forth in Table IX, below, supports this conclusion.

The molecule `Cc1c2oc3c(C)ccc(C(=O)N[C@@H]4C(=O)N[C@H](C(C)C)C(=O)N5CCC[C@H]5C(=O)N(C)CC(=O)N(C)[C@@H](C(C)C)C(=O)O[C@@H]4C)c3nc-2c(C(=O)N[C@@H]2C(=O)N[C@H](C(C)C)C(=O)N3CCC[C@H]3C(=O)N(C)CC(=O)N(C)[C@@H](C(C)C)C(=O)O[C@@H]2C)c(N)c1=O` [Actinomycin D] (I: T[dV]P[Sar][NMeV] / II: T[dV]P[Sar][NMeV]; ester I:1-I:C, II:1-II:C; linker I:N-II:N via Actinocin(9to1)) had an IC50 in data set [1] (substrate (6-3H)uridine) of 1.7 µg/mL.
Regarding `O=NN(CCCl)C(=O)NC1CCCCC1` [CCNU], the IC50 in data set [1] (substrate L-(U-14C)amino-acid mixture) is 45 µM.
For the molecule `Nc1ccn([C@@H]2O[C@H](CO)[C@@H](O)[C@@H]2O)c(=O)n1` [Cytosine arabinoside], the IC50 is 2 µM in data set [1] (substrate (thymine-U-14C)-thymidine) and 430 µM in data set [1] (substrate L-(U-14)amino-acid).
As to `CCN(CC)CCOc1ccc2c(c1)C(=O)c1cc(OCCN(CC)CC)ccc1-2` [Tiloron, 2,7-bis-[2-(diethylamino)ethoxy]fluorene-9-one], the “Radioactivity incorporation, adenine” value in data set [2] (75 μM) is 1252 cpm; in data set [2] (150 μM), 1096 cpm; in data set [2] (300 μM), 979 cpm; in data set [2] (600 μM), 563 cpm; in data set [2] (37,5 μM) it was 1160 cpm. Also, the “Radioactivity incorporation, valine” value in data set [2] (75 μM) is given as 2374 cpm; in data set [2] (150 μM) it was 2247 cpm; in data set [2] (300 μM), 2443 cpm; in data set [2] (600 μM), 1944 cpm; in data set [2] (37,5 μM), 2395 cpm. In addition, the activity at 75 µM was determined as 118% in data set [2] (75 μM, read-out: Incorporation of adenine relative to control (0 μM = 100%)) and 97% in data set [2] (75 μM, read-out: Incorporation of valine relative to control (0 μM = 100%)). Moreover, the activity at 150 µM came out at 103% in data set [2] (150 μM, read-out: Incorporation of adenine relative to control (0 μM = 100%)) and 92% in data set [2] (150 μM, read-out: Incorporation of valine relative to control (0 μM = 100%)). For the same molecule, the activity at 300 µM in data set [2] (300 μM, read-out: Incorporation of adenine relative to control (0 μM = 100%)) came out at 92%; in data set [2] (300 μM, read-out: Incorporation of valine relative to control (0 μM = 100%)), 100%. The activity at 600 µM was 53% in data set [2] (600 μM, read-out: Incorporation of adenine relative to control (0 μM = 100%)) and 79% in data set [2] (600 μM, read-out: Incorporation of valine relative to control (0 μM = 100%)). Besides, the IC50 came out at 600 µM in data set [2] (14C-adenine, read-out: IC50 (concentration inhibiting incorporation by 50 percent), adenine); 600 µM in data set [2] (14C-valine, read-out: IC50 (concentration inhibiting incorporation by 50 percent), valine); 154 µM in data set [3]. Further, the activity at 37.5 µM in data set [2] (37,5 μM, read-out: Incorporation of adenine relative to control (0 μM = 100%)) was determined as 109%; in data set [2] (37,5 μM, read-out: Incorporation of valine relative to control (0 μM = 100%)), 98%.
Consider `CN(C)CC(C)(C)COc1cc2c(c3ccccc13)-c1ccccc1C2=O` [compound 13467, hydrochloride], for which the “Survival time of animals with respect to median” value in data set [4] is given as 186%; in data set [7] it was 135%. Besides, the “Survival time of animals with respect to geom. mean” value stood at 89% in data set [5], 256% in data set [6] (o. (oral) 5×100 mg/kg) and 232% in data set [6] (s.c. 5×50 mg/kg). The “Relative tumour size (% of control value)” value in data set [5] (assessed day 14, significant (&)) is 45%. Further, the IC50 in data set [3] was found to be 101 µM. The same molecule had a median lethal dose (LD50) in data set [8] of 550 mg/kg.
